Measurements published in patent US8324405B2, “Chromene derivatives and use thereof as HIF hydroxylase activity inhibitors” (FibroGen, Inc., priority 2008, dated 2012).

Each compound was assayed against T1, HIF-PH2 (Homo sapiens, UniProt Q9GZT9) (assay: HIF-PH assay (14CO2 capture, peptide-dependent turnover)). Conditions: Concentration 7.41 μM.
T1 construct: made in house; host or cells: insect Hi5 cells
T1 sequence (Q9GZT9 whole entry, species assumed): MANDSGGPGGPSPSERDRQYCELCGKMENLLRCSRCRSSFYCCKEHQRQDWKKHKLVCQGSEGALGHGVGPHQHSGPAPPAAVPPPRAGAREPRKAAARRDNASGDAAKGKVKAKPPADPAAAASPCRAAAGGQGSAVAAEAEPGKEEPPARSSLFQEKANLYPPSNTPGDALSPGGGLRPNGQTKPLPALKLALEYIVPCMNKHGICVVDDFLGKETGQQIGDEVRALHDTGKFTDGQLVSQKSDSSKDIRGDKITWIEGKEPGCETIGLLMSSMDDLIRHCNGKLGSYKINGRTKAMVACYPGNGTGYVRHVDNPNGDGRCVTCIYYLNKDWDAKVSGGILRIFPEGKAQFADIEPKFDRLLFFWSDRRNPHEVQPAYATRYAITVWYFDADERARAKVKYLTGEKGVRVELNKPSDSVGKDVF
Format: biochemical
Text: Ketoglutaric acid α-[1-^14C]-sodium salt, alpha-ketoglutaric acid sodium salt, and HPLC purified peptide may be obtained from commercial sources, e.g., Perkin-Elmer (Wellesley Mass.), Sigma-Aldrich, and SynPep Corp. (Dublin Calif.), respectively. Peptides for use in the assay may be fragments of HIFα as described above or as disclosed in International Publication WO 2005/118836, incorporated by reference herein. For example, a HIF peptide for use in the HIF-PH assay is [methoxycoumarin]-DLDLEALAPYIPADDDFQL-amide. HIF-PH, e.g., HIF-PH2 (EGLN1), can be expressed in, e.g., insect Hi5 cells, and partially purified, e.g., through a SP ion exchange chromatography column. Enzyme activity is determined by capturing ^14CO2 using an assay described by Kivirikko and Myllyla (1982, Methods Enzymol. 82:245-304). Assay reactions contain 50 mM HEPES (pH 7.4), 100 μM α-ketoglutaric acid sodium salt, 0.30 μCi/mL ketoglutaric acid α-[1-^14C]-sodium salt, 40 μM FeSO4, 1 mM ascorbate, 1541.8 units/mL Catalase, with or without 50 μM peptide substrate and various concentrations of compound of the invention. Reactions are initiated by addition of HIF-PH enzyme.
The peptide-dependent percent turnover is calculated by subtracting percent turnover in the absence of peptide from percent turnover in the presence of substrate peptide. Percent inhibition and IC50 are calculated using peptide-dependent percent turnover at given inhibitor concentrations. Calculation of IC50 values for each inhibitor is conducted using GraFit software (Erithacus Software Ltd., Surrey UK).
Representative compounds of the invention were analyzed using the HIF-PH assay described above. Table I presents enzyme inhibition data for exemplary compounds against HIF-PH2, a representative HIF prolyl hydroxylase. By inhibiting HIF prolyl hydroxylase, compounds of the invention stabilize HIFα, which then combines with HIFβ to form an active transcription factor that increases expression of various genes involved in numerous beneficial cellular processes.
`COc1ccc(-c2ccc3oc(=O)c(C(=O)NCC(=O)O)c(O)c3c2)cc1` [Example 3, {[4-Hydroxy-6-(4-methoxy-phenyl)-2-oxo-2H-chromene-3-carbonyl]-amino}-acetic acid] was tested, and the inhibition at 7.41 µM was 94%. For `O=C(O)CNC(=O)c1c(O)c2cc(-c3ccc(Oc4ccccc4)cc3)ccc2oc1=O` [Example 4, {[4-Hydroxy-2-oxo-6-(4-phenoxy-phenyl)-2H-chromene-3-carbonyl]-amino}-acetic acid], the inhibition at 7.41 µM was 100%. With `O=C(O)CNC(=O)c1c(O)c2cc(-c3ccc(C(F)(F)F)cc3)ccc2oc1=O` [Example 5, {[4-Hydroxy-2-oxo-6-(4-trifluoromethyl-phenyl)-2H-chromene-3-carbonyl]-amino}-acetic acid] the inhibition at 7.41 µM was 96%.

Same assay, conditions: Concentration 12.50 μM
For `O=C(O)CNC(=O)c1c(O)c2cc(F)ccc2oc1=O` [Example 16, [(6-Fluoro-4-hydroxy-2-oxo-2H-chromene-3-carbonyl)-amino]-acetic acid], the inhibition at 12.5 µM was 96%. `O=C(O)CNC(=O)c1c(O)c2cc3cc(Br)ccc3c(Br)c2oc1=O` [Example 34, [(7,10-Dibromo-4-hydroxy-2-oxo-2H-benzo[g]chromene-3-carbonyl)-amino]-acetic acid] was tested, and the inhibition at 12.5 µM was 100%. With `O=C(O)CNC(=O)c1c(O)c2cc(-c3cccs3)ccc2oc1=O` [Example 27, [(4-Hydroxy-2-oxo-6-thiophen-2-yl-2H-chromene-3-carbonyl)-amino]-acetic acid] the inhibition at 12.5 µM was 99%. For `O=C(O)CNC(=O)c1c(O)c2cc3ccccc3cc2oc1=O` [Example 32, [(4-Hydroxy-2-oxo-2H-benzo[g]chromene-3-carbonyl)-amino]-acetic acid], the inhibition at 12.5 µM was 98%. For `Cc1ccc2c(O)c(C(=O)NCC(=O)O)c(=O)oc2c1` [Example 35, [(4-Hydroxy-7-methyl-2-oxo-2H-chromene-3-carbonyl)-amino]-acetic acid], the inhibition at 12.5 µM was 97%. Compound `O=C(O)CNC(=O)c1c(O)c2ccc(F)cc2oc1=O` [Example 17, [(7-Fluoro-4-hydroxy-2-oxo-2H-chromene-3-carbonyl)-amino]-acetic acid] has an inhibition at 12.5 µM of 98%. `O=C(O)CNC(=O)c1c(O)c2cc(F)cc(F)c2oc1=O` [Example 18, [(6,8-Difluoro-4-hydroxy-2-oxo-2H-chromene-3-carbonyl)-amino]-acetic acid] was tested, and the inhibition at 12.5 µM was 95%. `Cc1cc2oc(=O)c(C(=O)NCC(=O)O)c(O)c2cc1C` [Example 15, [(4-Hydroxy-6,7-dimethyl-2-oxo-2H-chromene-3-carbonyl)-amino]-acetic acid] gave an inhibition at 12.5 µM of 98%. For `O=C(O)CNC(=O)c1c(O)c2ccc3ccccc3c2oc1=O` [Example 31, [(4-Hydroxy-2-oxo-2H-benzo[h]chromene-3-carbonyl)-amino]-acetic acid], the inhibition at 12.5 µM was 100%. `O=C(O)CNC(=O)c1c(O)c2cc(-c3ccco3)ccc2oc1=O` [Example 28, [(6-Furan-2-yl-4-hydroxy-2-oxo-2H-chromene-3-carbonyl)-amino]-acetic acid] showed an inhibition at 12.5 µM of 100%.

Same assay, conditions: Concentration 22.22 μM
`O=C(O)CNC(=O)c1c(O)c2cc(Cl)cc(Cl)c2oc1=O` [Example 13, [(6,8-Dichloro-4-hydroxy-2-oxo-2H-chromene-3-carbonyl)-amino]-acetic acid] was tested, and the inhibition at 22.22 µM was 96%. `O=C(O)CNC(=O)c1c(O)c2cc(-c3ccc(OCc4ccccc4)cc3)ccc2oc1=O` [Example 8, {[6-(4-Benzyloxy-phenyl)-4-hydroxy-2-oxo-2H-chromene-3-carbonyl]-amino}-acetic acid] showed an inhibition at 22.22 µM of 100%. `O=C(O)CNC(=O)c1c(O)c2cc(Br)ccc2oc1=O` [Example 2, [(6-Bromo-4-hydroxy-2-oxo-2H-chromene-3-carbonyl)-amino]-acetic acid] gave an inhibition at 22.22 µM of 97%. `O=C(O)CNC(=O)c1c(O)c2ccc(-c3ccc(Oc4ccccc4)cc3)cc2oc1=O` [Example 11, {[4-Hydroxy-2-oxo-7-(4-phenoxy-phenyl)-2H-chromene-3-carbonyl]-amino}-acetic acid] showed an inhibition at 22.22 µM of 100%. With `Cc1ccc2c(O)c(C(=O)NCC(=O)O)c(=O)oc2c1C` [Example 10, [(4-Hydroxy-7,8-dimethyl-2-oxo-2H-chromene-3-carbonyl)-amino]-acetic acid] the inhibition at 22.22 µM was 100%. `O=C(O)CNC(=O)c1c(O)c2ccccc2oc1=O` [Example 1, [(4-Hydroxy-2-oxo-2H-chromene-3-carbonyl)-amino]-acetic acid] gave an inhibition at 22.22 µM of 96%. With `O=C(O)CNC(=O)c1c(O)c2ccc(Oc3ccccc3)cc2oc1=O` [Example 9, [(4-Hydroxy-2-oxo-7-phenoxy-2H-chromene-3-carbonyl)-amino]-acetic acid] the inhibition at 22.22 µM was 100%. In the case of `C[C@H](NC(=O)c1c(O)c2ccc(-c3ccc(Oc4ccccc4)cc3)cc2oc1=O)C(=O)O` [Example 12, 2-S-{[4-Hydroxy-2-oxo-7-(4-phenoxy-phenyl)-2H-chromene-3-carbonyl]-amino}-propionic acid], the “% Inhibition HIF-PH2” value is reported as 100%.

Same assay, conditions: Concentration 50.00 μM
Compound `O=C(O)CNC(=O)c1c(O)c2cc(-c3ccccn3)ccc2oc1=O` [Example 30, [(4-Hydroxy-2-oxo-6-pyridin-2-yl-2H-chromene-3-carbonyl)-amino]-acetic acid] has an inhibition at 50 µM of 99%. `O=C(O)CNC(=O)c1c(O)c2c(OCc3ccc(F)cc3)cccc2oc1=O` [Example 47, {[5-(4-Fluoro-benzyloxy)-4-hydroxy-2-oxo-2H-chromene-3-carbonyl]-amino}-acetic acid] showed an inhibition at 50 µM of 99%. `Cc1ccc(COc2cccc3oc(=O)c(C(=O)NCC(=O)O)c(O)c23)cc1` [Example 48, {[4-Hydroxy-5-(4-methyl-benzyloxy)-2-oxo-2H-chromene-3-carbonyl]-amino}-acetic acid] was tested, and the inhibition at 50 µM was 99%. `Cc1cccc2c(O)c(C(=O)NCC(=O)O)c(=O)oc12` [Example 20, [(4-Hydroxy-8-methyl-2-oxo-2H-chromene-3-carbonyl)-amino]-acetic acid] showed an inhibition at 50 µM of 99%. Compound `Cn1nc(C(F)(F)F)cc1-c1cc(Cl)cc2c(O)c(C(=O)NCC(=O)O)c(=O)oc12` [Example 21, {[6-Chloro-4-hydroxy-8-(2-methyl-5-trifluoromethyl-2H-pyrazol-3-yl)-2-oxo-2H-chromene-3-carbonyl]-amino}-acetic acid] has an inhibition at 50 µM of 99%. `Cc1cc(Cl)cc2c(O)c(C(=O)NCC(=O)O)c(=O)oc12` [Example 19, [(6-Chloro-4-hydroxy-8-methyl-2-oxo-2H-chromene-3-carbonyl)-amino]-acetic acid] gave an inhibition at 50 µM of 99%. In the case of `O=C(O)CNC(=O)c1c(O)c2c(OCc3ccccc3)cccc2oc1=O` [Example 46, [(5-Benzyloxy-4-hydroxy-2-oxo-2H-chromene-3-carbonyl)-amino]-acetic acid], the inhibition at 50 µM is reported as 99%. For `O=C(O)CNC(=O)c1c(O)c2cc(Cl)cc(-c3cccnc3)c2oc1=O` [Example 23, [(6-Chloro-4-hydroxy-2-oxo-8-pyridin-3-yl-2H-chromene-3-carbonyl)-amino]-acetic acid], the inhibition at 50 µM was 99%. For `O=C(O)CNC(=O)c1c(O)c2cc(-c3cccnc3)ccc2oc1=O` [Example 29, [(4-Hydroxy-2-oxo-6-pyridin-3-yl-2H-chromene-3-carbonyl)-amino]-acetic acid], the inhibition at 50 µM was 97%.

Same assay, conditions: Concentration 200.00 μM
With `O=C(O)CNC(=O)c1c(O)c2cccc(Cl)c2oc1=O` [Example 7, [(8-Chloro-4-hydroxy-2-oxo-2H-chromene-3-carbonyl)-amino]-acetic acid] the inhibition at 200 µM was 100%. Compound `CCOC(=O)CNC(=O)c1c(O)c2cc(Cl)cc(Cl)c2oc1=O` [Example 14, [(6,8-Dichloro-4-hydroxy-2-oxo-2H-chromene-3-carbonyl)-amino]-acetic acid ethyl ester] has an inhibition at 200 µM of 43%. Compound `Cc1ccc2oc(=O)c(C(=O)NCC(=O)O)c(O)c2c1` [Example 6, [(4-Hydroxy-6-methyl-2-oxo-2H-chromene-3-carbonyl)-amino]-acetic acid] has an inhibition at 200 µM of 100%. For `O=C(O)CNC(=O)c1c(O)c2c(ccc3ccccc32)oc1=O` [Example 33, [(1-Hydroxy-3-oxo-3H-benzo[f]chromene-2-carbonyl)-amino]-acetic acid], the inhibition at 200 µM was 100%.
